Here are results for 58 compounds from the OPERA property sets (Mansouri et al. 2018).

Molecules are shown by their SMILES. Values after ≈ are worked out from the molar mass of the structure shown.

As a reminder, the solubility is how much of the substance goes into solution per volume.

For the compound `Clc1cc(-c2c(Cl)c(Cl)cc(Cl)c2Cl)cc(Cl)c1Cl`, where the note is “25 °C”, the solubility was determined as 0.794 nM (≈ 0.314 ng/mL).
Under “25 °C”, `Clc1ccc(-c2cc(Cl)cc(Cl)c2Cl)c(Cl)c1` came in with a solubility of 15.1 nM (≈ 4.94 ng/mL).
Under “25 °C”, `Clc1cc(Cl)c(-c2ccc(Cl)c(Cl)c2)c(Cl)c1` had a solubility of 12.3 nM (≈ 4.02 ng/mL).
The same measure, in the same setting: with `Clc1cccc(-c2c(Cl)c(Cl)cc(Cl)c2Cl)c1` the figure was 17.4 nM (≈ 5.67 ng/mL); with `Clc1cc(-c2c(Cl)cc(Cl)c(Cl)c2Cl)c(Cl)c(Cl)c1Cl`, 0.38 nM (≈ 0.163 ng/mL).
In turn, `Clc1cc(Cl)cc(-c2ccccc2Cl)c1` had a solubility (25 °C) of 501 nM (≈ 129 ng/mL).
On the same count and under the same terms, with `Clc1ccc(-c2cc(Cl)c(Cl)cc2Cl)c(Cl)c1` the figure was 11.2 nM (≈ 3.66 ng/mL); with `Clc1cc(-c2cc(Cl)c(Cl)c(Cl)c2Cl)cc(Cl)c1Cl`, 1.9 nM (≈ 0.753 ng/mL).
With `Clc1ccc(Cl)c(-c2c(Cl)ccc(Cl)c2Cl)c1`, the solubility (20 °C) is 64.6 nM (≈ 21.1 ng/mL).
Where the note is “25 °C”, `Clc1cc(Cl)cc(-c2c(Cl)c(Cl)c(Cl)c(Cl)c2Cl)c1` came in with a solubility of 0.794 nM (≈ 0.314 ng/mL).
For `Clc1cc(Cl)c(-c2cc(Cl)c(Cl)c(Cl)c2Cl)c(Cl)c1`, where the note is “25 °C”, the solubility turned out to be 2.09 nM (≈ 0.826 ng/mL).
The same measure, in the same setting: with `Clc1cc(Cl)c(-c2cc(Cl)c(Cl)c(Cl)c2)cc1Cl` the figure was 6.17 nM (≈ 2.23 ng/mL); with `Clc1cc(Cl)c(-c2c(Cl)c(Cl)cc(Cl)c2Cl)c(Cl)c1Cl`, 0.631 nM (≈ 0.271 ng/mL).
The compound `Clc1cc(Cl)c(Cl)c(-c2ccccc2)c1Cl` had a solubility (25 °C) of 56.2 nM (≈ 16.4 ng/mL).
Same read-out and setting: with `Clc1ccc(-c2c(Cl)cccc2Cl)c(Cl)c1` the figure was 224 nM (≈ 65.4 ng/mL).
On the same count and under the same terms, the same measure for `Clc1ccc(-c2ccccc2Cl)c(Cl)c1`: 323 nM (≈ 83.3 ng/mL); for `Clc1cccc(-c2c(Cl)cccc2Cl)c1Cl`: 501 nM (≈ 146 ng/mL).
Still for that read-out and setting: with `Clc1ccc(-c2ccccc2)c(Cl)c1Cl` the figure was 661 nM (≈ 170 ng/mL); with `Clc1cc(-c2c(Cl)ccc(Cl)c2Cl)cc(Cl)c1Cl`, 5.37 nM (≈ 1.94 ng/mL); with `Clc1cc(-c2c(Cl)cc(Cl)c(Cl)c2Cl)cc(Cl)c1Cl`, 0.794 nM (≈ 0.314 ng/mL).
In the case of `Clc1cc(Cl)c(-c2ccccc2Cl)c(Cl)c1`, the solubility (25 °C) amounted to 224 nM (≈ 65.4 ng/mL).
On the same count and under the same terms, the same measure for `Clc1cc(Cl)c(-c2c(Cl)ccc(Cl)c2Cl)c(Cl)c1Cl`: 7.08 nM (≈ 2.8 ng/mL); for `Clc1cc(Cl)c(-c2cc(Cl)c(Cl)cc2Cl)c(Cl)c1`: 7.59 nM (≈ 2.74 ng/mL).
Still for that read-out and setting: the same measure for `Clc1cccc(-c2cc(Cl)c(Cl)cc2Cl)c1`: 74.1 nM (≈ 21.7 ng/mL).
On the same count and under the same terms, with `Clc1cc(-c2c(Cl)cccc2Cl)c(Cl)c(Cl)c1Cl` the figure was 7.41 nM (≈ 2.68 ng/mL).
In the case of `Clc1cc(Cl)c(-c2ccc(Cl)c(Cl)c2Cl)cc1Cl`, the solubility (20 °C) worked out at 4.16 nM (≈ 1.5 ng/mL).
Consider `Clc1cc(Cl)c(Cl)c(-c2c(Cl)cc(Cl)c(Cl)c2Cl)c1`, for which the solubility (25 °C) is 2.09 nM (≈ 0.826 ng/mL).
Consider `Clc1ccc(Cl)c(-c2c(Cl)c(Cl)c(Cl)c(Cl)c2Cl)c1Cl`, for which the solubility (25 °C) came out at 0.794 nM (≈ 0.341 ng/mL).
The same measure, in the same setting: with `Clc1ccc(Cl)c(-c2c(Cl)c(Cl)cc(Cl)c2Cl)c1Cl` the figure was 11.5 nM (≈ 4.54 ng/mL); with `Clc1ccccc1-c1c(Cl)c(Cl)cc(Cl)c1Cl`, 39.8 nM (≈ 13 ng/mL).
Still for that read-out and setting: with `Clc1ccc(-c2c(Cl)cccc2Cl)cc1Cl` the figure was 95.5 nM (≈ 27.9 ng/mL); with `Clc1ccc(-c2ccccc2)cc1Cl`, 407 nM (≈ 90.9 ng/mL); with `Clc1cc(Cl)cc(-c2c(Cl)c(Cl)cc(Cl)c2Cl)c1`, 5.38 nM (≈ 1.94 ng/mL).
Still for that read-out and setting: with `Clc1cc(Cl)c(-c2cc(Cl)ccc2Cl)c(Cl)c1` the figure was 33.9 nM (≈ 11.1 ng/mL); with `Clc1cc(Cl)c(-c2c(Cl)c(Cl)c(Cl)c(Cl)c2Cl)c(Cl)c1Cl`, 0.0788 nM (≈ 0.0366 ng/mL); with `Clc1cc(-c2cc(Cl)c(Cl)c(Cl)c2)cc(Cl)c1Cl`, 1.41 nM (≈ 0.51 ng/mL).
`Clc1cccc(-c2ccc(Cl)c(Cl)c2Cl)c1` returned a solubility (25 °C) of 170 nM (≈ 49.6 ng/mL).
On the same count and under the same terms, the same measure for `Clc1ccc(-c2cc(Cl)cc(Cl)c2Cl)cc1`: 170 nM (≈ 49.6 ng/mL).
Still for that read-out and setting: the same measure for `Clc1cc(Cl)c(-c2c(Cl)c(Cl)c(Cl)c(Cl)c2Cl)c(Cl)c1`: 0.331 nM (≈ 0.142 ng/mL).
Still for that read-out and setting: the same measure for `Clc1cc(Cl)cc(-c2c(Cl)ccc(Cl)c2Cl)c1`: 11.2 nM (≈ 3.66 ng/mL); for `Clc1ccc(-c2c(Cl)ccc(Cl)c2Cl)c(Cl)c1`: 67.7 nM (≈ 22.1 ng/mL).
Under “25 °C”, `Clc1cccc(-c2cc(Cl)c(Cl)c(Cl)c2Cl)c1Cl` gave a solubility of 3.8 nM (≈ 1.37 ng/mL).
Same read-out and setting: the same measure for `Clc1ccc(-c2c(Cl)cccc2Cl)c(Cl)c1Cl`: 166 nM (≈ 54.2 ng/mL).
On the same count and under the same terms, with `Clc1cc(Cl)c(Cl)c(-c2cc(Cl)c(Cl)cc2Cl)c1` the figure was 2.63 nM (≈ 0.949 ng/mL).
On the same count and under the same terms, with `Clc1ccc(-c2c(Cl)cc(Cl)cc2Cl)c(Cl)c1` the figure was 21.9 nM (≈ 7.14 ng/mL); with `Clc1cc(Cl)c(-c2c(Cl)cc(Cl)c(Cl)c2Cl)c(Cl)c1Cl`, 0.794 nM (≈ 0.341 ng/mL).
Consider `Clc1cccc(-c2c(Cl)cc(Cl)c(Cl)c2Cl)c1Cl`, for which, under “25 °C”, the solubility came to 3.31 nM (≈ 1.19 ng/mL).
The compound `Clc1cc(Cl)c(-c2cccc(Cl)c2Cl)c(Cl)c1` came in with a solubility (25 °C) of 39.8 nM (≈ 13 ng/mL).
Still for that read-out and setting: the same measure for `Clc1ccc(-c2c(Cl)c(Cl)cc(Cl)c2Cl)c(Cl)c1Cl`: 3.8 nM (≈ 1.5 ng/mL).
Consider `Clc1ccc(-c2c(Cl)c(Cl)c(Cl)c(Cl)c2Cl)c(Cl)c1`, for which the solubility (25 °C) came out at 1.07 nM (≈ 0.423 ng/mL).
Compound `Clc1ccc(-c2cc(Cl)c(Cl)c(Cl)c2Cl)c(Cl)c1` came in with a solubility (20 °C) of 3.02 nM (≈ 1.09 ng/mL).
Turning to `Clc1ccc(-c2c(Cl)cc(Cl)c(Cl)c2Cl)cc1`, for the setting “25 °C”, the solubility is 11.2 nM (≈ 3.66 ng/mL).
The same measure, in the same setting: with `Clc1cc(Cl)c(-c2c(Cl)c(Cl)cc(Cl)c2Cl)c(Cl)c1` the figure was 3.24 nM (≈ 1.28 ng/mL); with `Clc1cc(-c2c(Cl)c(Cl)cc(Cl)c2Cl)c(Cl)c(Cl)c1Cl`, 0.513 nM (≈ 0.22 ng/mL); with `Clc1cc(-c2c(Cl)ccc(Cl)c2Cl)c(Cl)c(Cl)c1Cl`, 2.57 nM (≈ 1.02 ng/mL).
`Clc1ccc(Cl)c(-c2c(Cl)cc(Cl)c(Cl)c2Cl)c1` returned a solubility (25 °C) of 9.77 nM (≈ 3.53 ng/mL).
Under “25 °C”, `Clc1cc(Cl)c(-c2c(Cl)c(Cl)c(Cl)c(Cl)c2Cl)cc1Cl` showed a solubility of 0.316 nM (≈ 0.136 ng/mL).
Same read-out and setting: the same measure for `Clc1cc(Cl)c(-c2ccc(Cl)c(Cl)c2Cl)c(Cl)c1`: 5.76 nM (≈ 2.08 ng/mL).
